# Reference: US20230372375A1, “SGLT-2 INHIBITOR SARCOSINE CO-CRYSTAL, PREPARATION METHOD THEREFOR AND USE THEREOF” (Beijing Creatron Institute of Pharmaceutical Research Co. …, priority 2020, published 2023)
# Values joined by “and” are separate entries in the source; they are usually repeats but may differ in a detail not shown here. Equal values may be shown once. Read-outs that look alike come from different tables or passages of the source.
# Experiments:
# [1] = Influencing factors test (physical and chemical stability) of canagliflozin crystal forms, Test Example 2; assay type: physicochemical; parameters: Impurity RRT0.73 content / Impurity RRT0.93 content / Impurity RRT1.12 content / Impurity RRT1.17 content / Impurity RRT2.25 content / Impurity RRT2.28 content / Impurity RRT0.57 content / Impurity RRT0.67 content: unit not given here
# Protocol: The canagliflozin-sarcosine cocrystal and canagliflozin hemihydrate (original crystal form) were tested for influencing factors.
# [2] = Comparison of sieving performance; conditions: 30 g, 80 mesh sieve, 1400 rpm, 20 minutes
# [3] = Particle size by laser particle size analyzer; conditions: water as a dispersant
# [4] = Fluidity (angle of repose, bulk density, tap density); conditions: BT-1000 powder comprehensive property tester
# [5] = Influencing factors test (physical and chemical stability) of dapagliflozin crystal forms, Test Example 1
# Protocol: The materials of the two crystal forms were directly exposed for 10 days to conditions of high temperature of 60° C.±2° C., light irradiation of 4500LX±500LX, and high humidity RH75%±5%, to investigate the physical stability and chemical stability of the two crystal forms.
# [6] = RH80%/25° C. 24 h
# physchem = conditions: thermodynamic from solid
# [7] = Directly exposed at 60° C. for 10 days
# [8] = Directly exposed at 5000 LX for 10 days
# [9] = Directly exposed at RH75% for 10 days
# [10] = light irradiation of 5000LX for 10 days
# [11] = 60° C., directly exposed 10 days
# [12] = Light irradiation of 5000 Lx, 10 days
# [13] = artificial gastric juice, 25 °C, simulated gastric fluid
# [14] = artificial intestinal juice, 25 °C, fassgf or other biorelevant
# [15] = citrate buffer of pH 3.0, 25 °C, pH 3, aqueous buffer
# [16] = hydrochloric acid of pH 1.0, 25 °C, pH 1, simulated gastric fluid
# [17] = phosphate buffer, 25 °C, pH 6.8, aqueous buffer
smiles,measurement,setting,value
CNCC(=O)O.Cc1ccc([C@@H]2O[C@H](CO)[C@@H](O)[C@H](O)[C@H]2O)cc1Cc1ccc(-c2ccc(F)cc2)s1 [canagliflozin-sarcosine cocrystal],Impurity RRT0.57 content,[1]; 0 day,0.01
same,Impurity RRT0.93 content,[1]; 0 day,0.01
same,Impurity RRT2.25 content,[1]; 0 day,0.01
same,Number of impurities,[1]; 0 day,3
same,Property (appearance),[1]; 0 day,White
same,Total content of impurities,[1]; 0 day,0.03%
same,Impurity RRT0.57 content,[1]; [7],0.01
same,Impurity RRT0.93 content,[1]; [7],0.01
same,Impurity RRT2.25 content,[1]; [7],0.01
same,Number of impurities,[1]; [7],3
same,Property (appearance),[1]; [7],White
same,Total content of impurities,[1]; [7],0.03%
same,Impurity RRT0.57 content,[1]; [8],0.05
same,Impurity RRT0.73 content,[1]; [8],0.01
same,Impurity RRT0.93 content,[1]; [8],0.01
same,Impurity RRT1.12 content,[1]; [8],0.01
same,Impurity RRT2.25 content,[1]; [8],0.01
same,Number of impurities,[1]; [8],5
same,Property (appearance),[1]; [8],White
same,Total content of impurities,[1]; [8],0.09%
same,Impurity RRT0.57 content,[1]; [9],0.01
same,Impurity RRT0.93 content,[1]; [9],0.01
same,Impurity RRT2.25 content,[1]; [9],0.01
same,Number of impurities,[1]; [9],3
same,Property (appearance),[1]; [9],White
same,Total content of impurities,[1]; [9],0.03%
same,Crystal form stability (XRPD),[1]; each influencing factor for 10 days vs 0 day,did not change
same,"Number of impurities detected and total content of impurities detected, change",[1]; high temperature 60° C. and high humidity of RH75% for 10 days vs 0 day,did not show an increasing trend
same,Weight change,[1]; high temperature of 60° C. and high humidity of RH75%,basically remained unchanged
same,Maximum detected amount of new impurities,[1]; [10],about 0.05%
same,New impurities detected (number),[1]; [10],2
same,Solubility,"Acetate buffer of pH 4.0, 25° C., 12 h",32650 µg/mL
same,Solubility,"Acetate buffer of pH 4.0, 25° C., 24 h",32660 µg/mL
same,Solubility,"Artificial gastric juice, 25° C., 12 h",31160 µg/mL
same,Solubility,"Artificial gastric juice, 25° C., 24 h",32080 µg/mL
same,Solubility,"Artificial intestinal juice, 25° C., 12 h",30350 µg/mL
same,Solubility,"Artificial intestinal juice, 25° C., 24 h",30890 µg/mL
same,Solubility,"Citrate buffer of pH 3.0, 25° C., 12 h",33870 µg/mL
same,Solubility,"Citrate buffer of pH 3.0, 25° C., 24 h",34230 µg/mL
same,Solubility,"Hydrochloric acid of pH 1.0, 25° C., 12 h",34920 µg/mL
same,Solubility,"Hydrochloric acid of pH 1.0, 25° C., 24 h",35120 µg/mL
same,Solubility,"Phosphate buffer of pH 6.8, 25° C., 12 h",31280 µg/mL
same,Solubility,"Phosphate buffer of pH 6.8, 25° C., 24 h",33340 µg/mL
same,Solubility,"Water, 25° C., 12 h",35120 µg/mL
same,Solubility,"Water, 25° C., 24 h",34560 µg/mL
same,Solubility in different pH media,"summary over media, 25° C.",about 30 μg/ml
same,Solubility in different pH media (words),"summary over media, 25° C.",almost insoluble
CCOc1ccc(Cc2cc([C@@H]3O[C@H](CO)[C@@H](O)[C@H](O)[C@H]3O)ccc2Cl)cc1.C[C@H](O)CO.O,Average yield (%) after sieving,[2],86.0%
same,Situations after sieving,[2],Almost no large particles but a
same,"Yield after sieving (%, n = 3), single runs",[2]; listed as Dapagliflozin (S)-propylene glycol hydrate,"85.2, % and 87.7, % and 84.9%"
same,D10 (μm),[3],2.492 μm
same,D50 (μm),[3],61.55 μm
same,D90 (μm),[3],256.2 μm
same,Angle of repose (°),[4],48 °
same,Bulk density,[4],0.35 g/mL
same,Tap density,[4],0.53 g/mL
same,"Impurity 6 (RT 21.65 min, RRT 1.06) content",[5]; 0 day,0.01
same,"Impurity 7 (RT 22.01 min, RRT 1.07) content",[5]; 0 day,0.01
same,"Impurity 10 (RT 33.01 min, RRT 1.61) content",[5]; 0 day,0.02
same,"Impurity 11 (RT 33.72 min, RRT 1.65) content",[5]; 0 day,0.01
same,"Impurity 12 (RT 34.69 min, RRT 1.69) content",[5]; 0 day,0.01
same,"Impurity 13 (RT 39.10 min, RRT 1.91) content",[5]; 0 day,0.02
same,Number of impurities,[5]; 0 day,6
same,Property (appearance),[5]; 0 day,White
same,Total content of impurities (%),[5]; 0 day,0.07%
same,"Impurity 1 (RT 7.45 min, RRT 0.36) content",[5]; [11],0.02
same,"Impurity 2 (RT 10.46 min, RRT 0.51) content",[5]; [11],0.14
same,"Impurity 3 (RT 14.06 min, RRT 0.69) content",[5]; [11],0.01
same,"Impurity 4 (RT 14.62 min, RRT 0.71) content",[5]; [11],0.21
same,"Impurity 5 (RT 16.02 min, RRT 0.78) content",[5]; [11],0.01
same,"Impurity 6 (RT 21.65 min, RRT 1.06) content",[5]; [11],0.01
same,"Impurity 7 (RT 22.01 min, RRT 1.07) content",[5]; [11],0.01
same,"Impurity 8 (RT 27.17 min, RRT 1.33) content",[5]; [11],0.02
same,"Impurity 9 (RT 30.53 min, RRT 1.49) content",[5]; [11],0.02
same,"Impurity 10 (RT 33.01 min, RRT 1.61) content",[5]; [11],0.02
same,"Impurity 11 (RT 33.72 min, RRT 1.65) content",[5]; [11],0.01
same,"Impurity 12 (RT 34.69 min, RRT 1.69) content",[5]; [11],0.01
same,"Impurity 13 (RT 39.10 min, RRT 1.91) content",[5]; [11],0.02
same,Number of impurities,[5]; [11],13
same,Property (appearance),[5]; [11],Melted
same,Total content of impurities (%),[5]; [11],0.50%
same,"Impurity 6 (RT 21.65 min, RRT 1.06) content",[5]; [12],0.01
same,"Impurity 7 (RT 22.01 min, RRT 1.07) content",[5]; [12],0.01
same,"Impurity 10 (RT 33.01 min, RRT 1.61) content",[5]; [12],0.02
same,"Impurity 11 (RT 33.72 min, RRT 1.65) content",[5]; [12],0.01
same,"Impurity 12 (RT 34.69 min, RRT 1.69) content",[5]; [12],0.01
same,"Impurity 13 (RT 39.10 min, RRT 1.91) content",[5]; [12],0.02
same,Number of impurities,[5]; [12],6
same,Total content of impurities (%),[5]; [12],0.08%
same,"Impurity 6 (RT 21.65 min, RRT 1.06) content","[5]; RH75%, 10 days",0.01
same,"Impurity 7 (RT 22.01 min, RRT 1.07) content","[5]; RH75%, 10 days",0.01
same,"Impurity 10 (RT 33.01 min, RRT 1.61) content","[5]; RH75%, 10 days",0.02
same,"Impurity 11 (RT 33.72 min, RRT 1.65) content","[5]; RH75%, 10 days",0.01
same,"Impurity 12 (RT 34.69 min, RRT 1.69) content","[5]; RH75%, 10 days",0.01
same,"Impurity 13 (RT 39.10 min, RRT 1.91) content","[5]; RH75%, 10 days",0.02
same,Number of impurities,"[5]; RH75%, 10 days",6
same,Total content of impurities (%),"[5]; RH75%, 10 days",0.08%
CCOc1ccc(Cc2cc([C@@H]3O[C@H](CO)[C@@H](O)[C@H](O)[C@H]3O)ccc2Cl)cc1 [dapagliflozin-sarcosine cocrystal],Hygroscopicity,[6],does not have hygroscopicity
same,Percentage of weight gain (%),[6],0.00%
same,Solubility,"Water, 25° C., 24 h",1590 µg/mL
same,solubility at 12 h,"physchem; acetate buffer of pH 4.0, 25 °C, pH 4, aqueous buffer",1640 µg/mL
same,solubility at 24 h,"physchem; acetate buffer, 25 °C, pH 4, aqueous buffer",1620 µg/mL
same,Solubility,"physchem; aqueous media of different pH, 25 °C, aqueous buffer",1400 to 1600 µg/mL
same,solubility at 12 h,physchem; [13],1560 µg/mL
same,solubility at 24 h,physchem; [13],1550 µg/mL
same,solubility at 12 h,physchem; [14],1400 µg/mL
same,solubility at 24 h,physchem; [14],1430 µg/mL
same,solubility at 12 h,physchem; [15],1620 µg/mL
same,solubility at 24 h,physchem; [15],1610 µg/mL
same,solubility at 12 h,physchem; [16],1600 µg/mL
same,solubility at 24 h,physchem; [16],1560 µg/mL
same,solubility at 12 h,physchem; [17],1580 µg/mL
same,solubility at 24 h,physchem; [17],1580 µg/mL
same,Average yield (%) after sieving,[2],91.8%
same,Situations after sieving,[2],Almost no large particles on the
same,"Yield after sieving (%, n = 3), single runs",[2],"93.6, % and 90.5, % and 91.3%"
same,D10 (μm),[3],5.151 μm
same,D50 (μm),[3],24.83 μm
same,D90 (μm),[3],89.93 μm
same,Angle of repose (°),[4],40 °
same,Bulk density,[4],0.40 g/mL
same,Tap density,[4],0.58 g/mL
same,"Impurity 10 (RT 33.01 min, RRT 1.61) content",[5]; 0 day,0.03
same,"Impurity 11 (RT 33.72 min, RRT 1.65) content",[5]; 0 day,0.01
same,"Impurity 12 (RT 34.69 min, RRT 1.69) content",[5]; 0 day,0.03
same,"Impurity 13 (RT 39.10 min, RRT 1.91) content",[5]; 0 day,0.01
same,Number of impurities,[5]; 0 day,4
same,Property (appearance),[5]; 0 day,White
same,Total content of impurities (%),[5]; 0 day,0.07%
same,"Impurity 10 (RT 33.01 min, RRT 1.61) content",[5]; [11],0.02
same,"Impurity 11 (RT 33.72 min, RRT 1.65) content",[5]; [11],0.01
same,"Impurity 12 (RT 34.69 min, RRT 1.69) content",[5]; [11],0.02
same,"Impurity 13 (RT 39.10 min, RRT 1.91) content",[5]; [11],0.01
same,Number of impurities,[5]; [11],4
same,Property (appearance),[5]; [11],White
same,Total content of impurities (%),[5]; [11],0.06%
same,"Impurity 10 (RT 33.01 min, RRT 1.61) content",[5]; [12],0.02
same,"Impurity 11 (RT 33.72 min, RRT 1.65) content",[5]; [12],0.01
same,"Impurity 12 (RT 34.69 min, RRT 1.69) content",[5]; [12],0.02
same,"Impurity 13 (RT 39.10 min, RRT 1.91) content",[5]; [12],0.01
same,Number of impurities,[5]; [12],4
same,Property (appearance),[5]; [12],White
same,Total content of impurities (%),[5]; [12],0.05%
same,"Impurity 10 (RT 33.01 min, RRT 1.61) content","[5]; RH75%, 10 days",0.02
same,"Impurity 11 (RT 33.72 min, RRT 1.65) content","[5]; RH75%, 10 days",0.01
same,"Impurity 12 (RT 34.69 min, RRT 1.69) content","[5]; RH75%, 10 days",0.02
same,"Impurity 13 (RT 39.10 min, RRT 1.91) content","[5]; RH75%, 10 days",0.01
same,Number of impurities,"[5]; RH75%, 10 days",4
same,Property (appearance),"[5]; RH75%, 10 days",White
same,Total content of impurities (%),"[5]; RH75%, 10 days",0.06%
same,"Number of impurities detected and total content of impurities detected, change","[5]; all the test conditions, 10 days vs 0 day",did not increase
same,Crystal form stability (XRPD),"[5]; each influencing factor (60° C., 5000LX, RH75%) for 10 days vs 0 day",did not change
